Consider two substances from patent US5446020A (Scios Nova Inc., priority 1993, dated 1995).

For series [1] the following is noted: of the potency of native insulin; cited from earlier work.
For series [2] the following is noted: cited from earlier work.
The conditions of series [3]: in vivo; cited from earlier work.
A further series concerns rats. Nature of the series: euglycemic, hyperinsulinemic clamp with 3H-glucose tracer. The class given is in vivo. The following applies: rat clamp. The method, then:
Analogs of the invention can be tested in a euglycemic, hyperinsulinemic rat clamp using ^3 H-glucose as a tracer. In accordance with this technique, glucose is infused to maintain euglycemia. […] Using ^3 H-glucose, glucose utilization by the periphery (Rd) and glucose production by the liver (HGO) can be calculated under steady state conditions using the equation of Steel et al., Am. J. Physiol. (1956) 187:15-24, incorporated herein by reference.
Analogs were tested using the euglycemic, hyperinsulinemic clamp method. […] The exogenous glucose was infused at a rate sufficient to maintain euglycemia for the duration of the experiment. Additionally, [D-3-^3 H] glucose (tracer) is infused to assess glucose metabolism (i.e, glucose turnover). The steady state equation of Steele et al. (Am. J. Physiol. (1956) 187:15-241) was used to calculate hepatic glucose output and the rate of glucose disposal. Under steady state conditions, glucose (mg/ml) and ^3 H-glucose (dpm/ml) levels are constant. Under these conditions the rate of glucose appearance (Ra)=rate of glucose disappearance (Rd). At steady state Ra =Rd. Ra is further defined as the rate of glucose entering the glucose pool (approximately the blood volume and other extra-cellular volume). Ra is equal to the rate at which the liver is making glucose plus the rate of any exogenous glucose infusion. Rd is equal to the rate of glucose leaving the pool.
Three main parameters are used to assess the effects of the analogs. The rate of exogenous infusion (i.e., glucose infusion rate, GIR or M) estimates the potency of analog. […] Finally, hepatic glucose output (HGO), reflects the ability of the analogs to suppress the liver's production of glucose.
Four to five days prior to experimentation, 65 mg/kg of sodium pentobarbital was administered intraperitoneally to anesthetize rats. Catheters were inserted in the right jugular vein and left carotid artery. The catheters were routed subcutaneously to the dorsal region of the neck and exteriorized. […] Blood samples were taken from the jugular vein. […] At 10 minute intervals after starting hormone infusion, 50 μl blood samples were taken to determine the plasma glucose level. During infusion of hormone, a 30% glucose solution was infused at an empirically determined rate to maintain the basal glucose level.
Aliquots of whole blood were obtained at -20, -10 and 0 minutes before the clamp was started, and later at 70, 80, and 90 minutes into the clamp and the plasma glucose level determined. Glucose specific activity at these times was also determined as follows: [formula]
The blood was deproteinized with 10% TCA, centrifuged, and an aliquot of supernatant dried in a vacuum oven to evaporate off ^3 H2 O. The ^3 H-glucose levels in the sample were determined using a liquid scintillation counter. Basal Ra (glucose appearance rate) and clamp Ra were calculated by using steady state glucose specific activity (basal: -20, -10 and 0 minutes; clamp: 70, 80, 90 minutes) and the following equation: [formula] Under basal conditions, at steady state, Ra =Rd and Ra hepatic glucose output. Under clamp conditions, at a steady state, Ra =Rd, however under these conditions, Ra =hepatic glucose output plus exogenous glucose infusion rate. Hepatic glucose output under clamp conditions was determined by subtracting the glucose infusion rate from the calculated Rd.

Consider “Proinsulin: single chain peptide precursor of insulin synthesized in the islets of Langerhans”, for which the “potency relative to native insulin when assayed in vitro” value in series [1] is on record as 1-2%. Moreover, in series [2] (of the potency of insulin), the “potency relative to insulin in vivo” value is “about 15%”. The “in vivo hepatoselectivity, more than that of insulin” value in series [2] (relative to insulin per se) is reported as 50%. Further, the circulating half-life in series [3] is 30 min.

As to “Insulin: insulin, the comparator hormone infused in the rat clamp”, the “GIR (glucose infusion rate)” value is 1.7 ± 0.6 mg/kg/min with rats (infusion 41.5 ng/kg/min); 6.9 ± 0.8 mg/kg/min with rats (infusion 83 ng/kg/min); 8.8 ± 1.2 mg/kg/min in the series with rats (infusion 100 ng/kg/min); 19.7 ± 0.5 mg/kg/min in the series with rats (infusion 166 ng/kg/min); 30.8 ± 1.7 mg/kg/min with rats (infusion 415 ng/kg/min). Also, the “HGO (hepatic glucose output)” value in the series on rats (infusion 41.5 ng/kg/min) is 11.3 ± 0.3 mg/kg/min; with rats (infusion 100 ng/kg/min), 9.1 ± 0.7 mg/kg/min; with rats (infusion 166 ng/kg/min) it was 6.4 ± 1.1 mg/kg/min; with rats (infusion 415 ng/kg/min), 3.5 ± 0.7 mg/kg/min. Besides, the “Rd (rate of glucose disappearance)” value with rats (infusion 41.5 ng/kg/min) is recorded as 13.0 ± 0.3 mg/kg/min; in the series with rats (infusion 100 ng/kg/min), 17.8 ± 1.0 mg/kg/min; in the series on rats (infusion 166 ng/kg/min), 26.1 ± 0.8 mg/kg/min; in the series with rats (infusion 415 ng/kg/min) it was 34.3 ± 1.6 mg/kg/min. Further, the circulating half-life in series [3] is listed as 4 min.
